Laboratory results reported in patent US8440643B2, “Inhibitors of beta-lactamase” (MethylGene Inc., priority 2006, dated 2013).

Tested on: Ps. aeruginosa, CL 5701
Experiment: Imipenem MIC against Ps. aeruginosa CL 5701
Assay type: cell-based
Conditions: Pseudomonas aeruginosa, CL5701, imipenem alone
From the text: The assay determines the concentration of a β-lactamase inhibitor required to reduce the MIC of a β-lactam antibiotic by one-half, one-quarter, one-eighth, one-sixteenth and one-thirty-second against strains of bacteria normally resistant to the antibiotic in question. This is accomplished by titrating the inhibitor (BLI=beta-lactamase inhibitor) in a serial dilution across a microtiter plate while at the same time titrating the antibiotic (AB) in a serial dilution down the microtiter plate and then inoculating the plate with the bacterial strain in question and allowing the bacteria to grow up overnight. Each well in this microplate checkerboard contains a different combination of concentrations of the inhibitor and the antibiotic allowing a full determination of any synergy between the two.
• 1. All wells in rows B-H of MIC 2000 microtiter plates are filled with 100 μL of MHBII+1% DMSO (dimethyl sulfoxide). • 2. All wells in row A of MIC 2000 microtiter plates are filled with 100 μL of 2×MHBII+2% DMSO. • 3. […] Plates are left at 37° C. for about 20 hours and scored for growth by eye. […]
Plates are scored for growth in each well. End points (MICs) where there is no growth in each row are determined and the concentrations of AB and the test BLI at each of these growth negative wells are then used to determine levels of synergy. […]

Compound `C[C@@H](O)[C@H]1C(=O)N2C(C(=O)O)=C(SCCN=CN)C[C@H]12` [Imipenem] has an MIC of 20 µg/mL.
